Reference: a melting point compilation (Tetko et al.; mined from patent text by program, amines drawn as free bases though some values may be those of a salt)

| SMILES | melting point |
| --- | --- |
| Cn1nc(Sc2cc(C(F)(F)F)ccc2C(=O)O)n(C)c1=O | 211 °C |
| O=C1Nc2ccccc2C1CCCCN1CC=C(c2ccc(Cl)cc2)CC1 (stereo not given) | 122 to 124 °C |
| Nc1cc(C(F)(F)F)ccc1-c1cc2ccccc2[nH]1 | 164 to 166 °C |
| COC(Cc1ccc(OCCN(C)c2nc3ccccc3o2)cc1)C(=O)O (stereo not given) | 121 to 123 °C |
| NC(=O)c1c(Cl)c(Cl)c(Cl)c(Cl)c1Cl | 268 to 270 °C |
| CS(=O)(=O)CCNC(=O)c1cccc(-c2ccc3c(c2)C(c2ccc(Cl)cc2Cl)CC3)c1 (stereo not given) | 193 to 194 °C |
| NC(=O)c1ccc(N)c(C(N)=O)c1 | 177 to 198 °C |
| O=C(Nc1ccc(Oc2ccc(CCC(=O)N3CCN(Cc4ccc5c(c4)OCO5)CC3)cc2)nc1)c1ccc(C(F)(F)F)cc1 | 140 to 141 °C |
| CS(=O)(=O)c1ccc(-n2cnc(Cl)c2-c2cnc(Cl)c(Cl)c2)cc1 | 223 to 230 °C |
| C=C(C)C(=O)Nc1ccc2ccc(Cl)nc2n1 | 182 °C |
| O=C(OCCN1CCNC1=O)c1ccccc1 | 130 to 132 °C |
| CON(C)C(=O)c1cc(-n2c(=O)cc(C(F)(F)F)n(C)c2=O)c(F)cc1Cl | 158 °C |
| Fc1cc2c(Nc3ccc(Cl)c(Br)c3)ncnc2cn1 | 271 to 275 °C |
| CCC1(O)CC(=O)OCc2c1cc[nH]c2=O (stereo not given) | 118 to 119 °C |
| O=C1CC(=C[N+](=O)[O-])Nc2ccc(Cl)cc2N1c1ccccc1 | 248 to 251 °C |
| Cc1ncc(-c2cccc(Nc3ncnc4c3CCOc3ccccc3-4)c2)n1C | 235 to 237 °C |
| O=C(C=Cc1ccccc1C(F)(F)F)C=Cc1ccccc1C(F)(F)F | 131 to 133 °C |
| CCOC(=O)C(=CNc1ccc(COC(C)=O)cc1I)C(=O)OCC | 128 to 131 °C |
| COc1ccc(C(=O)Nc2c(F)cccc2F)cc1OC1CCCC1 | 158 to 160 °C |
| CC(/C=C/c1ccccc1-c1ccc2c(c1)C(C)(C)CCC2(C)C)=C\C(=O)O | 178 to 179 °C |
| CCC1(CC)NC(=O)Oc2ccc(-c3cccc(Cl)c3)cc21 | 150 to 151 °C |
| COC(=O)c1cc(Cl)sc1S(=O)(=O)Cl | 95 to 97 °C |
| O=c1cc(C=Cc2ccccc2)oc2ccc(O)cc12 | 230 °C |
| CCCCCCCCCCCC(=O)Nc1ccc(NC(=O)CCNC(=O)C2OC(C)(C)OCC2(C)C)cc1 (stereo not given) | 144 to 145 °C |
| c1ccc2scnc2c1 | 134 to 135 °C |

| SMILES | melting point |
| --- | --- |
| COc1c(Cl)ccc(C#N)c1F | 94 to 97 °C |
| CCCCCCCCNCC(O)COc1ccc(SC)cc1 (stereo not given) | 79.5 to 80.5 °C |
| Cc1c(OCC(F)(F)C(F)F)ccnc1CO | 67 to 68 °C |
| COc1ccc(C=CC(=O)CN2CCOCC2)cc1 | 78 °C |
| COC(=O)CCN=c1sc2ccccc2s1 | 58 to 60 °C |
| O=C(O)c1ccc(-c2nc(-c3ccc(Cl)cc3)no2)c([N+](=O)[O-])c1 | 257 to 258 °C |
| Cc1nn(-c2cc(Oc3ccc(N)cc3Cl)c(Cl)cc2Cl)c(=O)n1C(F)F | 161 to 162 °C |
| CCCCOC(=O)CNC(=O)c1nc2ccc(Cl)cc2cc1OCc1ccccc1 | 121 to 123 °C |
| CC(=O)Nc1nc(Cl)c2c(ncn2COC(COC(C)C)COC(C)C)n1 | 73 to 75 °C |
| O=C(O)CCCCc1ccc2cncn2c1 | 168 to 171 °C |
| CC(=O)c1cccc2c1ncn2-c1cccc([N+](=O)[O-])c1 | 175 to 177 °C |
| CCC1Cc2cc(OC(C)(C)C(=O)O)c(Cl)c(Cl)c2C1=O (stereo not given) | 165 to 166 °C |
| COc1ccc(CNc2cc(Cn3c(Oc4cc(C)cc(C)c4)c(C(C)C)c(=O)[nH]c3=O)cc(Cl)n2)cc1 | 223 to 225 °C |
| O=C1CC2(CCOc3ccc(Cl)cc32)C(=O)N1 (stereo not given) | 225 to 226 °C |
| OC[C@@H]1CC[C@H](CO)O1 | 128 to 129 °C |
| C=C(C)C(=O)OCCCOc1ccc(-c2cc(OC(=O)C(=C)C)cc(-c3ccc(OCCCOC(=O)C(=C)C)cc3)c2)cc1 | 49 °C |
| CC(C)OC(=O)c1cc(NC(=O)C(C)(C)C)c(F)cc1Cl | 81 to 83 °C |
| O=C1c2ccccc2C(=O)c2cc(S(=O)(=O)NCCCN3CCOCC3)ccc21 | 151 to 156 °C |
| CCOC(=O)CNc1ncccc1NC(=O)c1ccc(F)cc1 | 127 to 128 °C |
| CC1(C)Oc2ccc(S(=O)(=O)C(F)(F)F)cc2[C@@H](N2Cc3ccc([N+](=O)[O-])cc3C2=O)[C@@H]1O (relative stereo) | 264 to 266 °C |
| COc1cc(NC(C)CCCN2C(=O)c3ccccc3C2=O)c2ncccc2c1N(C)C (stereo not given) | 103 to 105 °C |
| CC(=O)N1C(C(=O)O)CSC1C(C)c1ccc(CC(C)C)cc1 (stereo not given) | 150 to 153 °C |
| COC(=O)c1cc(NC2CCOCC2)nc(Cl)n1 | 190 to 192 °C |
| Cc1cc(NC(=O)OC(C)(C)C)c(C)c2c1OC(C)(C)C2=O | 144 to 145 °C |
| CSc1nc(=O)n(CC(=O)O)cc1F | 244 to 245 °C |

| SMILES | melting point |
| --- | --- |
| COc1ccc(OC)c(-c2cc(OC)cc3c2OC(CN)C3)c1 (stereo not given) | 128 to 130 °C |
| CN1CCN(C2c3ccccc3-c3[nH]c(=O)c(=O)[nH]c32)CC1 (stereo not given) | 263 to 265 °C |
| CC=C(C)C(=O)c1c(O)c2c(c3c(CCC)cc(=O)oc13)OC(C)(C)C=C2 | 110 to 112 °C |
| Cc1cccc2c(Cc3nc4c(F)c(F)cc(F)c4s3)cn(CC(=O)O)c12 | 216 to 218 °C |
| O=C(O)CN1CCN(c2ccnc(-c3nc(=O)c4ccccc4s3)c2)C1=O | 271 to 273 °C |
| N#Cc1ccc(C(=O)Nc2cccc(-n3nc(C(F)(F)F)cc3C(F)(F)F)c2)cc1 | 133 to 134 °C |
| C=CCNc1nc(NCc2ccccc2)c2scc(C)c2n1 | 97 to 98 °C |
| Clc1nc(Cl)c2c(n1)CCC2 | 77 to 79 °C |
| Cc1ccc(/C=C/c2ccccc2[N+](=O)[O-])c([N+](=O)[O-])c1 | 170 to 171 °C |
| CCC(Oc1c(Br)cc(-c2ccc(-c3c(Cc4ccccc4)oc4ccccc34)cc2)cc1Br)C(=O)O (stereo not given) | 79 to 80 °C |
| O=C1CCN(C2(OCCOc3ccccc3)OCCO2)CC1 | 105 to 106 °C |
| CC1(C)C(=O)Nc2cc3oc(-c4ccncc4)nc3cc21 | 336 to 338 °C |
| CC(n1cnc2cc(-c3ccc(F)cc3)sc2c1=O)C(O)(Cn1cncn1)c1ccc(F)cc1F (stereo not given) | 118 to 127 °C |
| C=C(C)C(=O)OCCCCOC(=O)/C=C/c1ccc(OC(=O)c2ccc(OC)cc2)cc1 | 89 to 90 °C |
| O=C1c2cccc3cc4ccccc4c(c23)C(=O)N1CCO | 211 °C |
| O=c1cc(-c2ccc(OCCOCCOCCOc3ccc(-c4cc(=O)c5c(O)cc(O)cc5o4)cc3)cc2)oc2cc(O)cc(O)c12 | 143 to 145 °C |
| Cc1c(Cl)cccc1S(=O)(=O)Nc1ccc2onc(C)c2c1 | 163 °C |
| COc1ccc(CCc2nc(Br)c(C(F)(F)F)[nH]2)cc1 | 104 to 106 °C |
| CN(C)C1CCC(Nc2ncc3ncnc(Nc4ccc(F)c(Cl)c4)c3n2)CC1 (stereo not given) | 178 to 180 °C |
| O=C(Nn1cnnc1)C1=NN(c2ccc(Cl)cc2Cl)C(c2ccc(Cl)cc2)C1 (stereo not given) | 134 to 138 °C |
| O=C(Nc1ccc(I)cc1Cl)C(F)(F)F | 51 to 52 °C |
| O=c1[nH]c(N2CCN(CCO)CC2)cc2c(F)cccc12 | 207 to 208 °C |
| Cc1oc(-c2ccccc2)nc1CCc1nc(CCl)cs1 | 89 to 90 °C |
| CCCN1CC=C(c2c[nH]c3ccc(OC)cc23)CC1 | 164 °C |
| CN(C)C1(c2ccccc2)CCC(CNC(=O)N2CCCC(c3c[nH]c4ccccc34)C2)CC1 (stereo not given) | 95 to 99 °C |

| SMILES | melting point |
| --- | --- |
| C=C(C1=C(CCC(=O)O)C(=O)CC1=O)c1ccccc1 | 116 to 117 °C |
| COC(=N)Nc1nc(OC)cc(OC)n1 | 91 to 95 °C |
| CCC(=O)CC(=O)c1ccc(C2CCC(CC)CC2)cc1 (stereo not given) | 78 °C |
| CC(C)(C)S(=O)(=O)c1ccc(C(=O)O)c(Cl)c1 | 181 to 182 °C |
| Fc1ccc(C2CCN(CCN(CCN3CCC(c4ccc(F)cc4)CC3)c3ccccc3)CC2)cc1 | 104 to 105 °C |
| NS(=O)(=O)C1=CCC(n2nc(C(F)(F)F)c3ccc4ccccc4c32)C=C1 (stereo not given) | 257 to 258 °C |
| CCOC(Cn1cc[nH]c1=O)c1ccc(OC)c(OC)c1 (stereo not given) | 134 °C |
| CCCCc1nc(Cl)c(CNC(=O)c2cc3c(OCC(O)CN(C(=O)OC(C)(C)C)C(C)C)cccc3[nH]2)n1Cc1ccc(-c2ccccc2C(=O)OC)cc1 (stereo not given) | 158 to 160 °C |
| C=CCOCc1c(C=O)sc2c(=O)c(C(=O)NCc3ccc(Cl)cc3)cn(C)c12 | 144 to 147 °C |
| CCOC(=O)C1CCC2(NCCc3cc(OC)c(OC)cc32)C(C2c3cc(OC)c(OC)cc3CCN2CC)C1 (stereo not given) | 140 to 142 °C |
| CC(=O)SCC(C(=O)N[C@@H](CC(C)C)C(=O)O)C(F)(F)F (stereo not given in full) | 150 to 152 °C |
| CCOC(=O)c1c(SCC(=O)COC(C)=O)nc2c(F)c(F)c(F)cc2c1O | 175 to 180 °C |
| CN(Cc1ccc(NC(=O)C2=Cc3cc(-c4ccc5c(c4)OCO5)ccc3S(=O)(=O)CC2)cc1)C1CCC(=O)CC1 | 219 to 223 °C |
| Cn1ncc2nn(-c3cc(C(F)(F)F)ccc3F)c(=O)cc21 | 190 to 195 °C |
| Cn1c(=O)oc2cc(CCBr)ccc21 | 104 to 106 °C |
| CCCCCCCC(=O)N(C)Cc1cc(-c2ccc(C=CC(=O)O)cc2)cs1 | 175 °C |
| CCCCCCCCCCNC(=O)Nc1ccccc1C(=O)NC1CCN(C(c2ccccc2)c2ccccc2)CC1 | 204 to 206 °C |
| Cc1c(C=O)c2c(c(C)c1NC(=O)CC(C)(C)C)C(c1ccc(C(C)C)cc1)CS2 (stereo not given) | 134 to 140 °C |
| CC(C)(C)OC(=O)Nc1cc(Br)cc(C(F)(F)F)c1 | 113 to 115 °C |
| O=C(O)CN1C(=O)c2cccc3c(Sc4ccccc4C(=O)O)ccc(c23)C1=O | 339 to 341 °C |
| Cc1nn(C(=O)NC(C)(C)CCc2ccccc2Cl)c(=O)n1N | 102 °C |
| Cc1n[nH]c(C)c1C(=O)Nc1ccccc1 | 244 to 245 °C |
| COc1ccc2cc(C3=CCC4(CC3)CCN(C)CC4)ccc2c1 | 147 to 150 °C |
| CC(C)(C)OC(=O)N1CCC(CCN2C(=O)C3(COc4cc5c(cc43)OCO5)c3ccccc32)CC1 (stereo not given) | 173 to 175 °C |
| O=C(ON1CCC(c2nsc3ccccc23)CC1)c1ccccc1 | 84 to 85 °C |
